Experimental data as given in ChEMBL document CHEMBL1201862, “PubChem BioAssay data set” (2004).
Calls of active or inactive are those of the source.

Experiments:
[1] = target: T1, G-protein coupled receptor 55 (Homo sapiens, UniProt Q9Y2T6); experiment: inhibition of LPI-stimulated GPR55 beta-arrestin translocation – imaging, U2OS, beta-arrestin-GFP, LPI agonist, primary screen (AID 2013); assay type: functional;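 note: antagonist potency measured as reduced agonist-driven arrestin aggregation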
[2] = target: T2, Cannabinoid receptor 1 (Homo sapiens, UniProt P21554); experiment: SAR analysis of antagonists of the Cannabinoid Receptor 1 using an Image-Based Assay - Set 2. [Related pubchem assays (depositor defined):AID2013, AID2026]; assay type: functional
[3] = target: T3, G-protein coupled receptor 35 (Homo sapiens, UniProt Q9HC97); experiment: SAR analysis of Agonists of the GPR35 Receptor using an Image-Based Assay - Set 2. [Related pubchem assays (depositor defined):AID2013, AID2026]; assay type: functional
[4] = target: T4, Cannabinoid receptor 2 (Homo sapiens, UniProt P34972); experiment: SAR analysis of antagonists of the Cannabinoid Receptor 2 using an Image-Based Assay. [Related pubchem assays (depositor defined):AID2013, AID2026]; assay type: functional
[5] = target: T2, Cannabinoid receptor 1; experiment: SAR analysis of agonists of the Cannabinoid Receptor 1 using an Image-Based Assay - Set 2. [Related pubchem assays (depositor defined):AID2013, AID2026]; assay type: functional
[6] = target: T3, G-protein coupled receptor 35; experiment: SAR analysis of Antagonists of the GPR35 Receptor using an Image-Based Assay - Set 3. [Related pubchem assays (depositor defined):AID2013, AID2026]; assay type: functional
[7] = target: T1, G-protein coupled receptor 55; experiment: blockade of LPI-induced GPR55 arrestin translocation – imaging, U2OS, beta-arrestin-GFP, LPI agonist, set 2, SAR follow-up (AID 2820); assay type: functional
[8] = target: T4, Cannabinoid receptor 2; experiment: SAR analysis of agonists of the Cannabinoid Receptor 2 using an Image-Based Assay. [Related pubchem assays (depositor defined):AID2013, AID2026]; assay type: functional
[9] = target: Metabotropic glutamate receptor 6 (Homo sapiens, UniProt O15303); experiment: Modulation of the Metabotropic Glutamate Receptor mGluR4: Selectivity at mGluR6. [Related pubchem assays (depositor defined):AID2437, AID2807]; assay type: functional
[10] = target: Metabotropic glutamate receptor 2 (Rattus norvegicus, UniProt P31421); experiment: mGluR2 modulation, off-target check – cell-based, rat, selectivity assay for mGluR4 modulator project (AID 2188); assay type: functional
[11] = target: Metabotropic glutamate receptor 3 (Rattus norvegicus, UniProt P31422); experiment: Modulation of the Metabotropic Glutamate Receptor mGluR4: Selectivity at mGluR3. [Related pubchem assays (depositor defined):AID2437, AID2807]; assay type: functional
[12] = target: Metabotropic glutamate receptor 8 (Rattus norvegicus, UniProt P70579); experiment: Modulation of the Metabotropic Glutamate Receptor mGluR4: Selectivity at mGluR8. [Related pubchem assays (depositor defined):AID2437, AID2807]; assay type: functional
[13] = target: Metabotropic glutamate receptor 1 (Rattus norvegicus, UniProt P23385); experiment: Modulation of the Metabotropic Glutamate Receptor mGluR4: Selectivity at mGluR1. [Related pubchem assays (depositor defined):AID2437, AID2807]; assay type: functional
[14] = NIH-3T3 fibroblast cytotoxicity, dose response, cytotoxicity control, cell-based, fluorescence, Alamar Blue, secondary assay (AID 2327); assay type: functional;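 note: NIH-3T3 mouse fibroblasts cultured with fluconazole at 8 µg/mL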
[15] = target: T5, SUMO-activating enzyme (Homo sapiens, UniProt Q9UBT2); experiment: blockers of UBC9-mediated SUMO conjugation – biochemical, AlphaScreen, SUMOylation inhibitor project, confirmation (AID 2018); assay type: functional
[16] = fluconazole-exposed Candida albicans growth modulators – fluorescence, retest, confirmation (AID 2467); assay type: functional, cell-based
[17] = target: Large T antigen (Simian virus 40, UniProt P03070); assay type: functional, Betapolyomavirus macacae;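 note: Confirmatory-stage PubChem screen for compounds that inhibit SV40 T antigen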
[18] = target: T5, SUMO-activating enzyme; experiment: blockers of SAE1/SAE2–UBC9 SUMO transfer – biochemical, HTRF, uHTS, primary screen (AID 2006); assay type: protein-complex assay
[19] = target: DNA dC->dU-editing enzyme APOBEC-3A (Homo sapiens, UniProt P31941); experiment: A3A deaminase inhibition for selectivity – biochemical, dose response (AID 504722); assay type: functional
[20] = target: Intestinal-type alkaline phosphatase (Mus musculus, UniProt P24822); experiment: PubChem AID 488785; assay type: functional
[21] = target: DNA dC->dU-editing enzyme APOBEC-3G (Homo sapiens, UniProt Q9HC16); experiment: Dose Response confirmation of small molecule APOBEC3G DNA Deaminase Inhibitors via a fluorescence-based single-stranded DNA deaminase assay. [Related pubchem assays (depositor defined):AID493012, AID493028]; assay type: functional
[22] = target: T6, Alkaline phosphatase, tissue-nonspecific isozyme (Homo sapiens, UniProt P05186); experiment: TNAP enzyme inhibition by screening hits, dose response, selectivity assay for mouse IAP inhibitor project, biochemical, human TNAP, uHTS hits (AID 488906); assay type: functional
T6 sequence (P05186 whole entry): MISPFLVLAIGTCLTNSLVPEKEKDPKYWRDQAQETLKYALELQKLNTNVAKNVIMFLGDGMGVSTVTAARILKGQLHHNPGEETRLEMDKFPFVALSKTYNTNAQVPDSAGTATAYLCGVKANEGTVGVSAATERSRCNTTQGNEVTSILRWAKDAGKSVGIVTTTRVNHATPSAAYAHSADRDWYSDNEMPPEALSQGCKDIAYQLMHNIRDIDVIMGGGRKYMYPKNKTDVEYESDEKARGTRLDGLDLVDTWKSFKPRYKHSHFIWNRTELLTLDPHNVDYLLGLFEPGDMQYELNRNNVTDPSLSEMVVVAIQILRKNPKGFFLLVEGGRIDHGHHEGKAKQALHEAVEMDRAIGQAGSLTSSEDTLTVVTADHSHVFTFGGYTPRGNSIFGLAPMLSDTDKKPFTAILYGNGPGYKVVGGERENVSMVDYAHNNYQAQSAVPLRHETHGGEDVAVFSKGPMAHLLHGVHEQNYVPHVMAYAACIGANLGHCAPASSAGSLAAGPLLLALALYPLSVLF

[23] = target: Intestinal-type alkaline phosphatase (Homo sapiens, UniProt P09923); experiment: inhibition of human intestinal alkaline phosphatase – biochemical, dose response (AID 488876); assay type: functional
[24] = target: Albumin (Bos taurus, UniProt P02769); experiment: Counterscreen for inhibitors of T-cell receptor (TCR)-CD3 interaction: Fluorescence-based biochemical high throughput dose response assay to identify inhibitors of T-cell receptor (TCR)-CD3 interaction using a TAMRA-labeled BSA probe.; assay type: functional
[25] = target: T7, Histone-lysine N-methyltransferase NSD2 (Homo sapiens, UniProt O96028); assay type: biochemical
T7 sequence (O96028 whole entry): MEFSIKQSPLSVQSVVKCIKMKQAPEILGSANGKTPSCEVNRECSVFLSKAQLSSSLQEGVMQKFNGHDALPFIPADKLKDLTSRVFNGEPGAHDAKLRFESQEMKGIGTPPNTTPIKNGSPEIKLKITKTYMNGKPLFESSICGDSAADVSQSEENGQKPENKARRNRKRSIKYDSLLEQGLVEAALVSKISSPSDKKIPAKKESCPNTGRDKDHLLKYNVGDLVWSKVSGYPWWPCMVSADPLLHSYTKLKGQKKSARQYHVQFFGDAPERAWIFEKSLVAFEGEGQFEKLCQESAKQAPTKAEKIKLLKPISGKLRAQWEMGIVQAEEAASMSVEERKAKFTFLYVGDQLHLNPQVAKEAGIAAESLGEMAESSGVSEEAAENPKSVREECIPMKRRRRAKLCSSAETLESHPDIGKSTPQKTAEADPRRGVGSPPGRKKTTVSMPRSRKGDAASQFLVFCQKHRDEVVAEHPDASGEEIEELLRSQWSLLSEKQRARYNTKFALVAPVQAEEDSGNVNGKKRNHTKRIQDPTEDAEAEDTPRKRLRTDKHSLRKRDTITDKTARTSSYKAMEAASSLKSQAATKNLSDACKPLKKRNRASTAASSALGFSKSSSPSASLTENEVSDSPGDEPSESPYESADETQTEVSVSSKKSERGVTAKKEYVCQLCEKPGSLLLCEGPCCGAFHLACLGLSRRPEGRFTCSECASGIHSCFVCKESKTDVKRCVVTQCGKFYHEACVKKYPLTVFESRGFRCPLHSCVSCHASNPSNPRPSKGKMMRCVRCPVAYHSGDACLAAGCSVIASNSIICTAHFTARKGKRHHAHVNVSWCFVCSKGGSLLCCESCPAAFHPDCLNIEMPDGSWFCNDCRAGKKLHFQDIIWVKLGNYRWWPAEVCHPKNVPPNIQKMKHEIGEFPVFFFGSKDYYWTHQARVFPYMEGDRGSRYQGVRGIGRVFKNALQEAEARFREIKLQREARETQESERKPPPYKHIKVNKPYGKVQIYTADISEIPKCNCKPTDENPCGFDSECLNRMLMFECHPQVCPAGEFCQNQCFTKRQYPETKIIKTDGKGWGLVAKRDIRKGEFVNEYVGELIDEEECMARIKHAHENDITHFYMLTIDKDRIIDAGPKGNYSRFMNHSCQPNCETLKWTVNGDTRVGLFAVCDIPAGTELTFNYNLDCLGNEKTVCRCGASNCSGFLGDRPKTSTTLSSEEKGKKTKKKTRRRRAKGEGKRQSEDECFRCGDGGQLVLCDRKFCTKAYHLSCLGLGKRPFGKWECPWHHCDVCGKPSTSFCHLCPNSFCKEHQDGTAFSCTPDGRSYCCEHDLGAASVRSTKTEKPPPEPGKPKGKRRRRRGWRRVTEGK

T2 sequence (P21554 whole entry): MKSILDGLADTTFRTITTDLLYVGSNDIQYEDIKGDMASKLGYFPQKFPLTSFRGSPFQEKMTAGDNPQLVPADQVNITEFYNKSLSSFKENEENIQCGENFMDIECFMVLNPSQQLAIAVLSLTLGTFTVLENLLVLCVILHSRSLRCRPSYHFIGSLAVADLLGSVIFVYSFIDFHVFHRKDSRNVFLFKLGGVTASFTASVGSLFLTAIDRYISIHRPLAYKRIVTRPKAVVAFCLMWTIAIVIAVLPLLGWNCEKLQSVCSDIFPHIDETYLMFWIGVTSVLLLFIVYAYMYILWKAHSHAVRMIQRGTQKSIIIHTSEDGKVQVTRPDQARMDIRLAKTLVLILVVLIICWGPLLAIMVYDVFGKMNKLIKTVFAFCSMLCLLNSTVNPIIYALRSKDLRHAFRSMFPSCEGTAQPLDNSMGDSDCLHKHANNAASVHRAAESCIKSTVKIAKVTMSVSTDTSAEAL
T5 sequence (Q9UBE0 whole entry): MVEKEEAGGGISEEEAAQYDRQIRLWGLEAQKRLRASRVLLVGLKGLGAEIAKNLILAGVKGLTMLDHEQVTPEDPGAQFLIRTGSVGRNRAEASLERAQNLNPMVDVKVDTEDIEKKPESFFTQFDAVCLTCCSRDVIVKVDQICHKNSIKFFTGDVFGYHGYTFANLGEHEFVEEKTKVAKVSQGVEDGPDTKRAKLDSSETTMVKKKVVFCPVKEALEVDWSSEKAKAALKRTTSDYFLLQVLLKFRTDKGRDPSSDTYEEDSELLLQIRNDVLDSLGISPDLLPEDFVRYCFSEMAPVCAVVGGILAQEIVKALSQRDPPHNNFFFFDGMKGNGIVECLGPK
T5 sequence (Q9UBT2 whole entry): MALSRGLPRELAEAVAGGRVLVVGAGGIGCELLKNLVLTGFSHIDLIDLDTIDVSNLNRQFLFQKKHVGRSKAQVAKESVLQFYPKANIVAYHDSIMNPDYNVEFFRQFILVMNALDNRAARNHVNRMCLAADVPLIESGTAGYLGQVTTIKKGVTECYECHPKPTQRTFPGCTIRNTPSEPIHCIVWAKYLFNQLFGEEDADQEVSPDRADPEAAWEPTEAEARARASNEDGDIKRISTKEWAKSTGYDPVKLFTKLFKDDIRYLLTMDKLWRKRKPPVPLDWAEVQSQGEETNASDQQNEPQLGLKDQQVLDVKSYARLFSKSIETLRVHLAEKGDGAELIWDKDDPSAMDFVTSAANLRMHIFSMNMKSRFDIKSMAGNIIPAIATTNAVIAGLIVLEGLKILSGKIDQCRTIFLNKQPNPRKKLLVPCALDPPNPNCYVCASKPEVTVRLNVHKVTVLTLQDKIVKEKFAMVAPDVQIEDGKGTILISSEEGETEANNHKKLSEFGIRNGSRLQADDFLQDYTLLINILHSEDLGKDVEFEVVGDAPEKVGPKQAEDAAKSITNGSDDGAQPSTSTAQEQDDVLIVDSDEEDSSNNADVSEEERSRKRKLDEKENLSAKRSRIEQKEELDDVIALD
T1 sequence (Q9Y2T6 whole entry): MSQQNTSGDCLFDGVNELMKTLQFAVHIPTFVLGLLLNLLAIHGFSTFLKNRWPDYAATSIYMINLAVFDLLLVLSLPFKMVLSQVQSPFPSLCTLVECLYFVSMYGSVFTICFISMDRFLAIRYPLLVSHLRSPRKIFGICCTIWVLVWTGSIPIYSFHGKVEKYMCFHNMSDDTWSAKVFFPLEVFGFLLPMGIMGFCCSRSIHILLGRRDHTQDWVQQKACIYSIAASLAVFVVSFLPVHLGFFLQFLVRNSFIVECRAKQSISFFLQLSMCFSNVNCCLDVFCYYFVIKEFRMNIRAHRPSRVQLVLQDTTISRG
T4 sequence (P34972 whole entry): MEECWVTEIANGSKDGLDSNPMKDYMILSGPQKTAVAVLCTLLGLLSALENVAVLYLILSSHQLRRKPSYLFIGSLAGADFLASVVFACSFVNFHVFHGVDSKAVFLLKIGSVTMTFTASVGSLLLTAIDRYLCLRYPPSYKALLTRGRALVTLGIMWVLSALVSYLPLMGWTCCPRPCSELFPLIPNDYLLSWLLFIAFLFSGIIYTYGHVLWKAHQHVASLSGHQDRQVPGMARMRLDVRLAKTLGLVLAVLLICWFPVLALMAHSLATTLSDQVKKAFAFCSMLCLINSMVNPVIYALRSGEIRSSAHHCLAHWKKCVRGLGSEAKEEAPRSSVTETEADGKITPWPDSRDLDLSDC
T3 sequence (Q9HC97 whole entry): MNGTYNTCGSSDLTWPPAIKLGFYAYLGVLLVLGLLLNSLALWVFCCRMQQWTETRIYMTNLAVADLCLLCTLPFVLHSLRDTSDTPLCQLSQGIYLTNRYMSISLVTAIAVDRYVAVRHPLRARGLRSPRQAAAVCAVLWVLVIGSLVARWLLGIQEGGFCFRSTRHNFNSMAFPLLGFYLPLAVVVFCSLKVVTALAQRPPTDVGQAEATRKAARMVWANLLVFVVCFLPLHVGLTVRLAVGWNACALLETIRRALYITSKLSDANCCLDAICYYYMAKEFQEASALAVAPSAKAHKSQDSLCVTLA
DNA dC->dU-editing enzyme APOBEC-3A, sequence (P31941 whole entry): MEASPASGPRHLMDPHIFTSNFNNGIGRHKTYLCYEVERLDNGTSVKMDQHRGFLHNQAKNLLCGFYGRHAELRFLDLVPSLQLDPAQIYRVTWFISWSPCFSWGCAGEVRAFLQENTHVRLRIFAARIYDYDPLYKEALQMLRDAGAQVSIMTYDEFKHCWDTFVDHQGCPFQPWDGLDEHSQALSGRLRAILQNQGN
Intestinal-type alkaline phosphatase (Mus musculus, UniProt P24822), sequence (P24822 whole entry): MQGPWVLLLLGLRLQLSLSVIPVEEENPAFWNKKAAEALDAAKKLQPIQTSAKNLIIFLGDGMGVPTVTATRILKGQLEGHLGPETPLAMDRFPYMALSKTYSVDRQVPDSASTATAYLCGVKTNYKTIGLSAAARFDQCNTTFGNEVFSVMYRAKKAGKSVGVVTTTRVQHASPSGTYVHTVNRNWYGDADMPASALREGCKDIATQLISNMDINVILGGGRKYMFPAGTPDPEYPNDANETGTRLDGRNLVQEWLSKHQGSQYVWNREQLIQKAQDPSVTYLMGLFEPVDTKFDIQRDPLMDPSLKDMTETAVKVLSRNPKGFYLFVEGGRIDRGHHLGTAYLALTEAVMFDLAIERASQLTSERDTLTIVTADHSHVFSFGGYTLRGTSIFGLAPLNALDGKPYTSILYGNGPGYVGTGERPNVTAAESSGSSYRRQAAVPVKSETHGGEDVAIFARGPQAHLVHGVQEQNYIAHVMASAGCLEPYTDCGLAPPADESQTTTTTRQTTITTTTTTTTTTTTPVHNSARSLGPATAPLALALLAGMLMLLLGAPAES
Metabotropic glutamate receptor 1, sequence (P23385 whole entry): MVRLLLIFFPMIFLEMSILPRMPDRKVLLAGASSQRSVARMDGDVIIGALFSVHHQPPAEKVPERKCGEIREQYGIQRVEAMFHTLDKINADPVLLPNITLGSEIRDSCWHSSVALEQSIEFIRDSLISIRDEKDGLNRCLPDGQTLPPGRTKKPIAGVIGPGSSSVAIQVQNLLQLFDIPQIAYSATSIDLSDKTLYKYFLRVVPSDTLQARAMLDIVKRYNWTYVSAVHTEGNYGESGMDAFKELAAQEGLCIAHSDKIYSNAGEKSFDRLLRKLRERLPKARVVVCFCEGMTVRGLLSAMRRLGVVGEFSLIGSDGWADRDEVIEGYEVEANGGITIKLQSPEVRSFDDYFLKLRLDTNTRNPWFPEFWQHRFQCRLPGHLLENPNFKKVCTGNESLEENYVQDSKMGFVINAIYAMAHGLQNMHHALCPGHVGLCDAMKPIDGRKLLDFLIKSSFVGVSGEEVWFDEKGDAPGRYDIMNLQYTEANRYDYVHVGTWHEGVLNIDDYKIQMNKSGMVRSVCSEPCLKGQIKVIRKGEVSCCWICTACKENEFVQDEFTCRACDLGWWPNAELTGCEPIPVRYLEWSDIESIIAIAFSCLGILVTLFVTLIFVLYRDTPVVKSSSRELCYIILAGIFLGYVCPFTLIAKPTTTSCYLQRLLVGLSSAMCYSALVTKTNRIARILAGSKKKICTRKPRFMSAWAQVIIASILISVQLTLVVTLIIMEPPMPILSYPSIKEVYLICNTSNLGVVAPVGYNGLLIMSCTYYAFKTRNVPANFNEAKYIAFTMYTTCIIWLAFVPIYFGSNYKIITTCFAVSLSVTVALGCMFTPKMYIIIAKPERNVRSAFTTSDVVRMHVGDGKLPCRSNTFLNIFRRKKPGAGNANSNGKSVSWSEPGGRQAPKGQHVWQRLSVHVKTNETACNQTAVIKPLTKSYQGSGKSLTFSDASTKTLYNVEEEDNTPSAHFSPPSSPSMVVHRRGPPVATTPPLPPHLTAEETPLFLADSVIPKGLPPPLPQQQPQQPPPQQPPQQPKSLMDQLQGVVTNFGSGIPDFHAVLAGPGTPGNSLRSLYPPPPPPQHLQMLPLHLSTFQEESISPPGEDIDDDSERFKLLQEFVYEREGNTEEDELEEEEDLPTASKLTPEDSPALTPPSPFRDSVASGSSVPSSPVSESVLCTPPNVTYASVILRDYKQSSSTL
DNA dC->dU-editing enzyme APOBEC-3G, sequence (Q9HC16 whole entry): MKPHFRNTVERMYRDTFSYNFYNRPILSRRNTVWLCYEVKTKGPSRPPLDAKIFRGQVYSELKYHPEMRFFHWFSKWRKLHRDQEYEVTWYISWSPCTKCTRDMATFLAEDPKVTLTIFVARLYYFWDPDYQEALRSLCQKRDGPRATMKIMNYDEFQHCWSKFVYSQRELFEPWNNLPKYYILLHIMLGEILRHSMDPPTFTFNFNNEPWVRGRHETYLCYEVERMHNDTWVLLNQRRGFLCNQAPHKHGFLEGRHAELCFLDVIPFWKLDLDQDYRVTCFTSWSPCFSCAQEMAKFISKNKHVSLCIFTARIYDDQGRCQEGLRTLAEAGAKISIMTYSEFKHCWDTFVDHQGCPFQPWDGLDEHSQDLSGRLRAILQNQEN

## COC(=O)C1=C(N)c2c(F)cccc2C1(C#N)c1ccc(F)cc1 (stereo not given)
[1]
  IC50: 1.26 µM (active)
[2]
  IC50: 30.7 µM (inactive)
[3]
  EC50: > 32 µM (inactive)
[4]
  IC50: > 32 µM (inactive)
[5]
  EC50: > 32 µM (inactive)
[6]
  IC50: > 32 µM (inactive)
[7]
  IC50: 1.14 µM (active)
[8]
  EC50: > 32 µM (inactive)

## O=C(Nc1ccc(N2C(=O)[C@H]3[C@H](C2=O)[C@H]2C=C[C@@H]3C2)c(Cl)c1)c1ccccn1
[9]
  EC50: 2.51 µM (active)
[10]
  EC50: 0.787 µM (inactive)
[11]
  EC50: 0.514 µM (inactive)
[12]
  EC50: 11 µM (inactive)
[13]
  EC50: 1.4 µM (inactive)

## N#C/C(=C\c1ccc(O)c(O)c1)C(=O)Nc1cccc2ncccc12
[14]
  EC50: > 150 µM (inactive)
[15]
  IC50: 1.27 µM (active)
[16]
  EC50: > 38 µM (not active)
[17]
  IC50: 27.8 µM (active)
[18]
  IC50: 21.4 µM (active)
[19]
  IC50: > 100 µM (inactive)
[20]
  IC50: 14.3 µM (active)
[21]
  IC50: 3.81 µM (active)
[22]
  IC50: 34.6 µM (active)
[23]
  IC50: 12.5 µM (active)
[24]
  IC50: > 94 µM (inactive)
[25]
  AC50: 3.18 µM (active)
